Measured values published in patent publication US20110081675A1, “Metabolic Biomarkers Of Drug-Induced Cardiotoxicity” (WISCONSIN ALUMNI RESEARCH FOUNDATION, priority 2009, published 2011).

Tests used:
human cardiomyocytes = tested on: human cardiomyocytes
Protocol: The percentage of cell death, inherently and after drug treatment, was calculated by Trypan Blue staining (FIG. 2).
The doses for each compound were based upon published standards, equivalent to therapeutic circulating levels whenever possible (see Table 1).

[1] = tested on: human cardiomyocytes (Celprogen 36044-15at); assay: LC-ESI-TOF-MS metabolomics of extracellular media of drug-treated human cardiomyocytes (Tables 2A-2C); format: cell-based; details: 26uM Doxorubicin
Protocol: Data for statistical analysis were extracted from chromatograms using the Agilent Mass Hunter software (Product No. G3297AA, Agilent Technologies, Inc., Santa Clara, Calif.); it will be understood that alternative statistical analysis methods can be used. Masses were binned together if they were within 10 ppm and eluted within a 2 minutes retention time window. A binned mass was considered to be the same molecule across different LC-ESI-TOF-MS analyses (referred to herein as an “exact mass,” which will be understood to be ±10 ppm). Binning of the data is required for statistical analysis and comparison of masses across the entire experiment. If multiple peaks with the same mass at the same retention time within a single sample were detected by Mass Hunter, they were averaged to assist data analysis. Masses lacking a natural isotopic distribution or with an absolute height of less than 1000 were removed from the data prior to analysis. It would be understood that the results from this assay provide relative values that are assessed according to annotated values within 10 ppm to provide an identity for the molecular weight detected. Thus, a mass shift within 10 ppm is considered consistent with determining the identity of a specific cellular metabolite previously annotated due to differences in ionization source and instrumentation, e.g. between different experiments or using different instruments.
As used herein, a mass was considered to be the same across LC/ESI-TOF-MS runs using a simple algorithm that first sorts the data by mass and retention time. […] If a series of measurements fit this definition it was considered to be from the same compound. If either the mass or the retention time varied by more than the limits listed above it was considered to be a different compound and given a new unique designation.
The data from the most reproducible mass features was log base 2 transformed and median centered prior to statistical analysis. […] To test the null hypothesis a one way permutation based t-test assuming a normal approximation of the conditional distribution was used and implement using the Conditional Inference Procedures in a Permutation Test Framework (Coin) library, a contributed package of programming code. Statistics tests were performed without replacement of missing values decrease the degrees of freedom rather than imputing missing values. […] False discovery rates (FDR) were controlled using the Q value estimator (Storey et al., 2003, Proc Natl Acad. Sci., 100:9440-5) and implemented using the qvalue library in R (Dabney et al., 2003, qvalue: Q-value estimation for false discovery rate control. R package version 1.10.0., www.CRAN.R-project.org).
The extracellular media from treated and untreated cells was processed as described in Cezar et al., (2007, Stem Cells Development 16: 869-882, this publication is incorporated by reference), for extraction of low molecular weight molecules (<3 kD) for metabolomics analysis. Extracellular low molecular weight molecule preparations were separated by liquid chromatography followed by electrospray ionization time of flight (LC-ESI-TOF-MS) mass spectrometry for ionization and detection of the full spectra of low molecular weight molecules present in each sample. More specifically, the samples were separated using the ESI_Luna_HILIC—95_t—06OACN—16 min method (HILIC chromatography). Statistical differences were inferred by subsequent bioinformatics and in silico mapping of deisotoped ESI-TOF-MS mass features as described below (also provided in Cezar et al. (2007, id.)).
Briefly, ionization (100 m/z-1500 m/z) was acquired on an Agilent 6520 Accurate-Mass Q-TOF in extended dynamic range and positive mode. Mass features were generated using two independent methods. First MassHunter Qualitative Analysis was used to generate mass features using the Molecular Feature Extraction algorithm (MFE).

SMILES: COc1cccc2c1C(=O)c1c(O)c3c(c(O)c1C2=O)C[C@@](O)(C(=O)CO)C[C@@H]3O[C@H]1C[C@H](N)[C@H](O)[C@H](C)O1 [Doxorubicin]
- cell death (in words) (human cardiomyocytes): significantly higher cell death
- doxfold ([1]; feature cpdID 36, neutral mass 101.1204, RT 0.720145, Triethylamine or Hexylamine): −1.186 fold
- doxfold ([1]; feature cpdID 8902, neutral mass 276.1256, RT 8.733378, no hit): 2.438 fold
- doxfold ([1]; feature cpdID 11232, neutral mass 311.1029, RT 7.400847, p-Glucosyloxymandelonitrile or (S)-4-Hydroxymandelonitrile beta-D-glucoside): 5.193 fold
- doxfold ([1]; feature cpdID 14190, neutral mass 356.253, RT 1.103957, HMDB04239, 13,14-dihydro PGE1 or Prostaglandin F1alpha): 12.32 fold
- doxfold ([1]; feature cpdID 16504, neutral mass 393.0913, RT 7.25538, no hit): 1.09 fold
- doxfold ([1]; feature cpdID 16939, neutral mass 400.2796, RT 1.108613, 7-Ketocholesterol): 11.7 fold
- doxfold ([1]; feature cpdID 17096, neutral mass 403.1776, RT 6.2306, no hit): −2.02 fold
- doxfold ([1]; feature cpdID 19500, neutral mass 444.3034, RT 1.106333, […]-Dihydroxyvitamin D3-26,23-lactone): 16.24 fold
- doxfold ([1]; feature cpdID 19704, neutral mass 448.1344, RT 7.184483, no hit): 2.122 fold
- doxfold ([1]; feature cpdID 21926, neutral mass 488.3323, RT 1.106573, no hit): 7.799 fold
- doxfold ([1]; feature cpdID 23129, neutral mass 515.181, RT 10.44297, no hit): 1.178 fold
- doxfold ([1]; feature cpdID 23163, neutral mass 516.1241, RT 7.217222, Formononetin 7-O-glucoside-6″-O-malonate, Isochlorogenic acid b or 13-Dicaffeoylquinic acid): 2.198 fold
- doxfold ([1]; feature cpdID 24142, neutral mass 538.2779, RT 0.783395, no hit): 1.559 fold
- doxfold ([1]; feature cpdID 25445, neutral mass 572.1055, RT 7.089848, no hit): 1.199 fold
- doxfold ([1]; feature cpdID 25561, neutral mass 575.2051, RT 7.271724, no hit): 2.11 fold
- doxfold ([1]; feature cpdID 25601, neutral mass 576.3861, RT 1.10751, 3-Hexaprenyl-4-hydroxy-5-methoxybenzoic acid): 4.776 fold
- doxfold ([1]; feature cpdID 27363, neutral mass 620.4117, RT 1.108317, no hit): 2.836 fold
- doxfold ([1]; feature cpdID 28720, neutral mass 661.1924, RT 6.495524, no hit): 1.096 fold
- doxfold ([1]; feature cpdID 29101, neutral mass 672.1828, RT 6.528464, no hit): 2.172 fold
- doxfold ([1]; feature cpdID 29124, neutral mass 672.6836, RT 6.559082, no hit): 1.282 fold
- doxfold ([1]; feature cpdID 29227, neutral mass 676.1781, RT 1.298314, no hit): −6.816 fold
- doxfold ([1]; feature cpdID 31637, neutral mass 744.1091, RT 1.26415, no hit): −1.423 fold
- doxfold ([1]; feature cpdID 33162, neutral mass 791.2316, RT 6.496594, no hit): 1.817 fold
- doxfold ([1]; feature cpdID 37905, neutral mass 932.2608, RT 6.542554, no hit): 1.663 fold
- doxfold ([1]; feature cpdID 37922, neutral mass 932.7613, RT 6.562271, no hit): 1.324 fold
- doxfold ([1]; feature cpdID 37938, neutral mass 933.3726, RT 8.330596, no hit): 1.117 fold
- doxfold ([1]; feature cpdID 40510, neutral mass 1040.322, RT 6.499979, no hit): 1.351 fold
- doxfold ([1]; feature cpdID 42137, neutral mass 1122.172, RT 1.256606, no hit): −3.594 fold
- doxfold ([1]; feature cpdID 45209, neutral mass 1300.402, RT 6.501484, no hit): 1.838 fold
- doxfold ([1]; feature cpdID 45486, neutral mass 1322.385, RT 6.518707, no hit): 1.667 fold
